Results reported in patent US11352365B2, “Biased potent opioid-like agonists as improved medications to treat chronic and acute pain and methods of using the same” (THE UNITED STATES OF AMERICA, AS REPRESENTED BY THE …, priority 2018, dated 2022).
Where two headings read alike, the source gives them in different places.

Assays:
MOR [1] = target: T1, MOR (Homo sapiens, UniProt P35372); experiment: cell-based; format: cell-based; set-up: expressed in transfected cells; host or cells: CHO-hMOR (membrane variant); SH-SY5Y-hMOR also named
Method: Four thousand cells per well were split into 384-well low-volume plate (VWR) with Opti-MEM (Invitrogen) supplemented with 1% FBS for 3 hours at 37° C. except SH-SY5Y-hMOR cells, which were plated for 1 hour at 37° C. Cells were then treated with drugs, […] forskolin for 30 min at room temperature.
Cells were then homogenized by a Dounce homogenizer 15 times in an ice-cold buffer [50 mM Hepes (pH 7.4)], followed by centrifugation at 500 g at 4° C. for 5 min. The supernatant was transferred to a 1.5-ml tube on ice, and the pellet was resuspended, homogenized, and centrifuged at 500 g at 4° C. for 5 min. Then, the supernatant was combined and spun at 20,000 g at 4° C. for 10 min. The membrane pellet was resuspended in an ice-cold buffer [50 mM Hepes (pH 7.4)] at concentrations of […]. Membranes were stored at −80° C. until use. For forskolin-stimulated cAMP accumulation assay, membranes were diluted in an assay buffer (50 mM Hepes, 10 mM MgCl2, 100 mM NaCl, 200 mM adenosine 5′-triphosphate, 10 mM GTP, 100 mM 3-isobutyl-1-methylxanthine, 20 mM forskolin, and 30 mM bovine serum albumin) and plated at […] of protein in each well. Membranes were treated with test compounds for 30 min at room temperature. The cAMP levels were determined as per the manufacturer's instructions (Cisbio cAMP HiRange assay).

δ opioid receptor = target: T2, δ opioid receptor (Rattus norvegicus, UniProt P33533); experiment: Binding assay, 3H DADLE, rat tissue; conditions: 100 nM concentration
T2 construct: from tissue; host or cells: rat tissue (per the earlier reading)

μ opioid receptor = μ opioid receptor (Rattus norvegicus, UniProt P33535); conditions: read-out: 3H DAMGO μ Ki ± SEM; rat tissue, triplicate
MOR [2] = target: T1, MOR; experiment: cell-based; format: cell-based; set-up: host or cells: U2OS-β-arrestin2-EFC-hMOR
Method: The PathHunter β-arrestin assay. The assay was performed according to the manufacturer's protocol (DiscoveRx) and as described previously. Briefly, 5000 U2OS-β-arrestin2-EFC-hMOR cells were plated in 384-well white plates with Opti-MEM media (Invitrogen) containing 1% FBS±pertussis toxin (100 ng/ml) overnight. The next day, cells were treated with compounds for 90 min at 37° C., followed by a 1-hour incubation of detection reagent at room temperature. Luminescence values were determined by using a Synergy HT luminometer (BioTek).

κ opioid receptor = target: T3, κ opioid receptor (Rattus norvegicus, UniProt P34975); experiment: Binding assay, 3H U69,593, rat tissue
T3 construct: from tissue; host or cells: rat tissue (per the earlier reading)
T3 sequence (P34975 whole entry): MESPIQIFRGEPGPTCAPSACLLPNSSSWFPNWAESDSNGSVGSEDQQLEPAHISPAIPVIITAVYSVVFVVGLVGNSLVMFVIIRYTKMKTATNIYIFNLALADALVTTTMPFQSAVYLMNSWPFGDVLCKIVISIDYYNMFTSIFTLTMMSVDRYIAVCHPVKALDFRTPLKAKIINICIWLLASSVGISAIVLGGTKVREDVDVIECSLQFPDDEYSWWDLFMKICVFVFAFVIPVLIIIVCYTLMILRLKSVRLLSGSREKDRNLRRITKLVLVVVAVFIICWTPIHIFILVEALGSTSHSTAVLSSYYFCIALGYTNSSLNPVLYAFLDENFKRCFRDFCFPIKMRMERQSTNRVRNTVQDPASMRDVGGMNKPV

T1 sequence (P35372 whole entry): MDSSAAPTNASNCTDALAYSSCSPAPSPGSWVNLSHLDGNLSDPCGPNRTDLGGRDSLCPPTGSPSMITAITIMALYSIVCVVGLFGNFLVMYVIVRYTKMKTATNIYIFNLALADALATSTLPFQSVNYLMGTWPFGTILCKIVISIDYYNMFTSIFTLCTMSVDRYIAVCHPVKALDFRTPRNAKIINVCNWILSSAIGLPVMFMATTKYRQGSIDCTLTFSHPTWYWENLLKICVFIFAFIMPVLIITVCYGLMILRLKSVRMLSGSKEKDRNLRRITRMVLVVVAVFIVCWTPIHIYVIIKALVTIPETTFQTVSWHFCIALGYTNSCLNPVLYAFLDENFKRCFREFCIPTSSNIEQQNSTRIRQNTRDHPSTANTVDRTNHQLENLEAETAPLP
Sequence of μ opioid receptor (P33535 whole entry): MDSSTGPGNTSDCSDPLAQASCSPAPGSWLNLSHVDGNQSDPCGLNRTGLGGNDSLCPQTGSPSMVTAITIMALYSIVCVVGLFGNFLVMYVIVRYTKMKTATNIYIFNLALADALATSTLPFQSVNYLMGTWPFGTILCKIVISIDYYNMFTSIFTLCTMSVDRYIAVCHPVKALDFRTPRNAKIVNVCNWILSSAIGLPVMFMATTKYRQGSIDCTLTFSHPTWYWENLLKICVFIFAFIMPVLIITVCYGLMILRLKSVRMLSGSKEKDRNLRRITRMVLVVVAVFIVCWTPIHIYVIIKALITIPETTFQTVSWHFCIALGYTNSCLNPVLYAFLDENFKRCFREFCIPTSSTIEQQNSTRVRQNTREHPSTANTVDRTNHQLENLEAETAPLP
T2 sequence (P33533 whole entry): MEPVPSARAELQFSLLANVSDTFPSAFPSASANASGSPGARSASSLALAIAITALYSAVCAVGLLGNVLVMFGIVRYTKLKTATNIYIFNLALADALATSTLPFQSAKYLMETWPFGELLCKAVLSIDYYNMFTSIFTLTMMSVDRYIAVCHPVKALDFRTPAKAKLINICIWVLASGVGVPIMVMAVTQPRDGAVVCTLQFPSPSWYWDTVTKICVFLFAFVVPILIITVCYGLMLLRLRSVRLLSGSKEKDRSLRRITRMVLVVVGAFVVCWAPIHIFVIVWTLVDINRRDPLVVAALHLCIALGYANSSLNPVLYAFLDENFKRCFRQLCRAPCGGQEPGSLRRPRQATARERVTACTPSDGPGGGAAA

“3-((1S,5R,9R)-9-(2-hydroxyethyl)-2-phenethyl-2-azabicyclo[3.3.1]nonan-5-yl)phenol [Compound 9]” was tested, and the “MOR cAMP Agonist (% Efficacy)” value (MOR [1]; Table 1) was “(64 ± 2%)”, the EC50 (MOR [1]; Table 1, read-out: MOR cAMP Agonist Potency ± SEM) was 4.7 ± 0.5 nM and the “agonist character at the mu-receptor (in words)” value (MOR [1]; in vitro data) was “less potent partial agonist”. The “3H DADLE δ activity in exploratory assay” value (δ opioid receptor) was “I (<50% activity at 100 nM concentration (displaced less than half of radioligand) in exploratory assay)”, the Ki (μ opioid receptor) was 5.43 ± 0.09 nM and the “beta-arrestin recruitment (in words)” value (MOR [2]) was “do not”. For the same substance, the EC50 (MOR [2]; Table 1, read-out: MOR Mediated β-arrestin Recruitment) was over 25000 nM, the “3H U69,593 κ activity in exploratory assay” value (κ opioid receptor; 100 nM concentration, rat tissue) was “I (<50% activity at 100 nM concentration (displaced less than half of radioligand) in exploratory assay)” and the “interaction with the kappa-receptor (in words)” value (κ opioid receptor; in vitro data) was “does not interact with the kappa-receptor”.
